Assay results as given in PubChem BioAssay AID330 (DTP/NCI, 2004).
“And” between values parts separate entries of the source, which are not always exact repeats. Equal values may be shown once. Inconclusive results and toxic doses are left out.

System: P388 leukemia ip, CD2F1 mice, survival T/C
Assay: NCI In Vivo Anticancer Drug Screen. Data for tumor model P388 Leukemia (intraperitoneal) in CD2F1 (CDF1) mice
Details: endpoint: median survival time, higher = longer survival
How it was run: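 Mice carrying the transplanted tumor received test compound or vehicle. Survival was recorded in each group, and the value is the treated-group measurement divided by that of the vehicle-treated control group.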

[1] = dose: 15.0 mg/kg/injection, schedule: Q01DX005 (ip), vehicle: saline with Tween-80
[2] = dose: 30.0 mg/kg/injection, schedule: Q01DX005 (ip), vehicle: saline with Tween-80
[3] = dose: 60.0 mg/kg/injection, schedule: Q01DX005 (ip), vehicle: saline with Tween-80
[4] = dose: 50.0 mg/kg/injection, schedule: Q01DX005 (ip), vehicle: Klucel (hydroxypropylcellulose) (HPC)
[5] = dose: 100.0 mg/kg/injection, schedule: Q01DX005 (ip), vehicle: Klucel (hydroxypropylcellulose) (HPC)
[6] = dose: 120.0 mg/kg/injection, schedule: Q01DX005 (ip), vehicle: saline with Tween-80
[7] = dose: 240.0 mg/kg/injection, schedule: Q01DX005 (ip), vehicle: saline with Tween-80
[8] = dose: 50.0 mg/kg/injection, schedule: Q01DX009 (ip), vehicle: suspension in saline
[9] = dose: 100.0 mg/kg/injection, schedule: Q01DX009 (ip), vehicle: suspension in saline
[10] = dose: 200.0 mg/kg/injection, schedule: Q01DX009 (ip), vehicle: suspension in saline
[11] = dose: 100.0 mg/kg/injection, schedule: Q04DX002 (ip), vehicle: saline with Tween-80
[12] = dose: 50.0 mg/kg/injection, schedule: Q01DX005 (ip), vehicle: saline with Tween-80
[13] = dose: 100.0 mg/kg/injection, schedule: Q01DX005 (ip), vehicle: saline with Tween-80
[14] = dose: 200.0 mg/kg/injection, schedule: Q01DX005 (ip), vehicle: saline with Tween-80
[15] = dose: 60.0 mg/kg/injection, schedule: Q01DX005 (ip), vehicle: saline
[16] = dose: 120.0 mg/kg/injection, schedule: Q01DX005 (ip), vehicle: saline
[17] = dose: 60.0 mg/kg/injection, schedule: Q01DX005 (ip), vehicle: Klucel (hydroxypropylcellulose) (HPC)
[18] = dose: 120.0 mg/kg/injection, schedule: Q01DX005 (ip), vehicle: Klucel (hydroxypropylcellulose) (HPC)
[19] = dose: 240.0 mg/kg/injection, schedule: Q01DX005 (ip), vehicle: Klucel (hydroxypropylcellulose) (HPC)
[20] = dose: 50.0 mg/kg/injection, schedule: Q01DX009 (ip), vehicle: saline with Tween-80

SMILES: CCCCC(=O)c1c(O)c2ccccc2oc1=O
- T/C [1]: 100 % of control
- T/C [2]: 97 % of control
- T/C [3]: 116 % of control and 94 % of control

SMILES: CCCCN(CCCC)CC1CC(C(C)(C)C)CCC1O (stereo not drawn)
- T/C [4]: 91 % of control
- T/C [5]: 91 % of control

SMILES: C=C(C)c1nn(-c2ccccc2)c2c1C(=O)CC(C)O2 (stereo not drawn)
- T/C [3]: 98 % of control
- T/C [6]: 100 % of control
- T/C [7]: 98 % of control

SMILES: O=C1CSC(=S)N1c1cccc(F)c1
- T/C [8]: 108 % of control
- T/C [9]: 100 % of control
- T/C [10]: 100 % of control

SMILES: CN=C(N)N/N=C/c1c2ccccc2cc2ccccc12
- T/C (dose: 25.0 mg/kg/injection, schedule: Q04DX002 (ip), vehicle: saline with Tween-80): 115 % of control
- T/C (dose: 50.0 mg/kg/injection, schedule: Q04DX002 (ip), vehicle: saline with Tween-80): 111 % of control
- T/C [11]: 114 % of control

SMILES: CC1(C)OC2(C)CCC1C1C2N1C(=O)Nc1cccc2ccccc12 (stereo not drawn)
- T/C [12]: 99 % of control
- T/C [13]: 97 % of control
- T/C [14]: 93 % of control

SMILES: COc1cc2c(c(Cl)c1OC)CCN(C)CC2c1ccccc1 (stereo not drawn)
- T/C [15]: 102 % of control
- T/C [16]: 98 % of control

SMILES: CCCCC1(O)C(=O)N(c2ccccc2)N(c2ccccc2)C1=O
- T/C [17]: 102 % of control
- T/C [18]: 102 % of control
- T/C [19]: 96 % of control

SMILES: CCC1CN2CCc3cc(OC)c(OC)cc3C2CC12CO2 (stereo not drawn)
- T/C (dose: 12.5 mg/kg/injection, schedule: Q01DX009 (ip), vehicle: saline with Tween-80): 114 % of control
- T/C (dose: 25.0 mg/kg/injection, schedule: Q01DX009 (ip), vehicle: saline with Tween-80): 108 % of control
- T/C [20]: 96 % of control

SMILES: CCCCCCCCCCCCCC[N+]1([O-])CCOCC1
- T/C (dose: 25.0 mg/kg/injection, schedule: Q04DX002 (ip), vehicle: saline): 104 % of control
- T/C (dose: 50.0 mg/kg/injection, schedule: Q04DX002 (ip), vehicle: saline): 104 % of control
- T/C (dose: 100.0 mg/kg/injection, schedule: Q04DX002 (ip), vehicle: saline): 104 % of control and 94 % of control

SMILES: C/C(=N\NC(=S)N1CCN(c2ccccn2)CC1)c1nccs1
- T/C (dose: 6.25 mg/kg/injection, schedule: Q01DX005 (ip), vehicle: saline with Tween-80): 105 % of control
- T/C (dose: 12.5 mg/kg/injection, schedule: Q01DX005 (ip), vehicle: saline with Tween-80): 113 % of control

SMILES: COC(=O)C1CC2C(=O)N(C)C=CC12 (stereo not drawn)
- T/C [11]: 104 % of control
- T/C (dose: 200.0 mg/kg/injection, schedule: Q04DX002 (ip), vehicle: saline with Tween-80): 98 % of control
- T/C (dose: 400.0 mg/kg/injection, schedule: Q04DX002 (ip), vehicle: saline with Tween-80): 102 % of control

SMILES: CCCCCCCCCCCCCCCC(=O)NCCCCC(N)C(=O)O (stereo not drawn)
- T/C [8]: 94 % of control
- T/C [9]: 98 % of control
- T/C [10]: 96 % of control

SMILES: [CH3][Sn]1([CH3])[O]C(=O)c2ccccc2C(=O)[O]1
- T/C (dose: 12.5 mg/kg/injection, schedule: Q01DX001 (ip), vehicle: Klucel (hydroxypropylcellulose) (HPC)): 102 % of control and 111 % of control
- T/C (dose: 25.0 mg/kg/injection, schedule: Q01DX001 (ip), vehicle: Klucel (hydroxypropylcellulose) (HPC)): 101 % of control and 102 % of control
- T/C (dose: 50.0 mg/kg/injection, schedule: Q01DX001 (ip), vehicle: Klucel (hydroxypropylcellulose) (HPC)): 100 % of control

SMILES: CC1(C)SSCC1=O
- T/C (dose: 50.0 mg/kg/injection, schedule: Q01DX005 (ip), vehicle: saline): 104 % of control
- T/C (dose: 100.0 mg/kg/injection, schedule: Q01DX005 (ip), vehicle: saline): 109 % of control
- T/C (dose: 200.0 mg/kg/injection, schedule: Q01DX005 (ip), vehicle: saline): 108 % of control

SMILES: CC(O)CCc1nc2ccccc2[nH]1 (stereo not drawn)
- T/C [12]: 95 % of control
- T/C [13]: 100 % of control
- T/C [14]: 95 % of control

SMILES: CN1CCc2[nH]nc(-c3n[nH]c4c3CN(C)CC4)c2C1
- T/C [15]: 100 % of control
- T/C [16]: 86 % of control
- T/C (dose: 240.0 mg/kg/injection, schedule: Q01DX005 (ip), vehicle: saline): 93 % of control

SMILES: O=C1C2=C3C(=CC4COC3O4)C3C4COC(O4)C(=O)C3C2C2COC1O2 (stereo not drawn)
- T/C (dose: 100.0 mg/kg/injection, schedule: Q04DX002 (ip), vehicle: Klucel (hydroxypropylcellulose) (HPC)): 115 % of control
- T/C (dose: 200.0 mg/kg/injection, schedule: Q04DX002 (ip), vehicle: Klucel (hydroxypropylcellulose) (HPC)): 109 % of control
- T/C (dose: 400.0 mg/kg/injection, schedule: Q04DX002 (ip), vehicle: Klucel (hydroxypropylcellulose) (HPC)): 115 % of control

SMILES: O=C(O)C(Oc1nc(=S)[nH]c(=S)[nH]1)(c1ccc(Cl)cc1)c1ccc(Cl)cc1
- T/C [3]: 103 % of control
- T/C [6]: 101 % of control
- T/C [7]: 103 % of control

SMILES: CCCN=C(N)c1ccc(N=C(N)c2ccc(N=C(N)c3ccc(C(N)=NCCC)cc3)cc2)cc1
- T/C (dose: 0.08 mg/kg/injection, schedule: Q01DX009 (ip), vehicle: saline): 100 % of control
- T/C (dose: 0.15 mg/kg/injection, schedule: Q01DX009 (ip), vehicle: saline): 100 % of control
- T/C (dose: 0.3 mg/kg/injection, schedule: Q01DX009 (ip), vehicle: saline): 110 % of control
- T/C (dose: 1.25 mg/kg/injection, schedule: Q01DX009 (ip), vehicle: saline): 154 % of control
- T/C (dose: 2.5 mg/kg/injection, schedule: Q01DX009 (ip), vehicle: saline): 118 % of control
- T/C (dose: 5.0 mg/kg/injection, schedule: Q04DX003 (ip), vehicle: saline with Tween-80): 95 % of control
- T/C (dose: 10.0 mg/kg/injection, schedule: Q01DX009 (ip), vehicle: saline): 150 % of control
- T/C (dose: 10.0 mg/kg/injection, schedule: Q04DX003 (ip), vehicle: saline with Tween-80): 100 % of control
- T/C (dose: 15.0 mg/kg/injection, schedule: Q01DX009 (ip), vehicle: saline): 172 % of control
- T/C (dose: 20.0 mg/kg/injection, schedule: Q01DX009 (ip), vehicle: saline with Tween-80): 200 % of control
- T/C (dose: 20.0 mg/kg/injection, schedule: Q04DX003 (ip), vehicle: saline with Tween-80): 100 % of control

SMILES: O=C1OC2(C=C(O)C1=O)CCCCC2
- T/C [17]: 106 % of control
- T/C [18]: 107 % of control
- T/C [19]: 116 % of control

SMILES: CN1c2ccccc2Sc2cc(N3c4ccccc4Sc4ccc(C(F)(F)F)cc43)c(C(F)(F)F)cc21
- T/C (dose: 100.0 mg/kg/injection, schedule: Q04DX003 (ip), vehicle: Klucel (hydroxypropylcellulose) (HPC)): 101 % of control
- T/C (dose: 200.0 mg/kg/injection, schedule: Q04DX003 (ip), vehicle: Klucel (hydroxypropylcellulose) (HPC)): 100 % of control
- T/C (dose: 400.0 mg/kg/injection, schedule: Q04DX003 (ip), vehicle: Klucel (hydroxypropylcellulose) (HPC)): 98 % of control

SMILES: C=CC[P+](C)(c1ccccc1)c1ccccc1
- T/C (dose: 0.78 mg/kg/injection, schedule: Q01DX009 (ip), vehicle: saline): 94 % of control
- T/C (dose: 1.56 mg/kg/injection, schedule: Q01DX009 (ip), vehicle: saline): 97 % of control
- T/C (dose: 3.13 mg/kg/injection, schedule: Q01DX009 (ip), vehicle: saline): 106 % of control

SMILES: N#CCc1ccc([N+](=O)[O-])cc1C(=O)O
- T/C [12]: 104 % of control
- T/C [13]: 104 % of control
- T/C [14]: 101 % of control

SMILES: COC(=O)c1nc(NN)[nH]c(=O)c1C
- T/C [1]: 103 % of control
- T/C [2]: 98 % of control
- T/C [3]: 99 % of control and 97 % of control

SMILES: CC(=O)NC(Cc1ccc(F)cc1)C(=O)O (stereo not drawn)
- T/C [20]: 101 % of control and 109 % of control
- T/C (dose: 100.0 mg/kg/injection, schedule: Q01DX009 (ip), vehicle: saline with Tween-80): 102 % of control and 109 % of control
- T/C (dose: 200.0 mg/kg/injection, schedule: Q01DX009 (ip), vehicle: saline with Tween-80): 107 % of control and 95 % of control
- T/C (dose: 400.0 mg/kg/injection, schedule: Q01DX009 (ip), vehicle: saline with Tween-80): 107 % of control and 113 % of control
- T/C (dose: 600.0 mg/kg/injection, schedule: Q01DX009 (ip), vehicle: saline with Tween-80): 112 % of control and 124 % of control

SMILES: COc1ccc(OC)c2cc3c(cc12)C(=O)c1ccccc1C3=O
- T/C [4]: 87 % of control
- T/C [5]: 88 % of control
- T/C (dose: 200.0 mg/kg/injection, schedule: Q01DX005 (ip), vehicle: Klucel (hydroxypropylcellulose) (HPC)): 91 % of control
